Laboratory results reported in patent US9994554B2, “Barbiturate and thiobarbiturate compounds for use in cancer therapy” (NUHOPE, LLC, priority 2011, dated 2018).
Where “and” joins values, the source holds several entries; their conditions need not be identical. Identical values can stand only once.

Legend:
[1] = system: WT/SH-SY5Y; assay: Cytotoxicity, WT/SH-SY5Y neuroblastoma; assay type: cell-based; details: wild type HFE transfected human neuroblastoma SH-SY5Y
Protocol: (§5) Human neuroblastoma cell lines were cultured in Dulbecco's Modified Eagle Medium (DMEM)/F12 media. Human glioma cells were ordered from American Type Culture Collection (ATCC, Manassas, Va.), and maintained in DMEM with 4×10^−3M L-glutamine, 100 U/ml penicillin, 100 μg/ml streptomycin, and 10% fetal bovine serum (FBS). All experiments were performed at 37° C. in 5% CO2 atmosphere under cell culture conditions. Prior to γ-radiation or exposure to chemotherapeutic agents, the glioma cells were plated at a density of 156 to 8,000 cells per well in 96 well plates to account for differences in growth rates, and to obtain similar cell densities for the experimental manipulations, and cultured overnight. […] Cell cytotoxicity assay was determined by MTS [3-(4,5-dimethylthiazol-2-yl)-5-(3-carboxymethoxyphenyl)-2-(4-sulfophenyl)-2H-tetrazolium, inner salt] Cell Proliferation Assay (Promega, Madison, Wis.) or sulforhodamine B (SRB) assay at the end of the exposure period (47, 48).

[2] = system: OVCAR-3; assay: Cytotoxicity, ovarian cancer cells; assay type: cell-based; details: human ovarian carcinoma cell line
Protocol: To assess the effect of CC-I on the ovarian cancer cells, the cells were cultured overnight at a density of 5,000 to 10,000 cells per well in 96 well plates. Then the cells were treated with different concentrations of CC-I (Formula IV) or Formula V for another 3-6 days before cytotoxicity assay using MTS or SRB assay. The IC50 or LD50, 50% inhibition or lethal dose, of compounds is also determined using statistical software (GraphPad) as a general indicator of toxicity.

[3] = system: CCF-STTG1 cell tumors; assay: Athymic nude mouse subcutaneous glioma tumor model; details: 25 mg/kg i.p. once a week for 7 weeks
Protocol: The efficacy and toxicity of CC-I was tested in vivo using the athymic nude mouse subcutaneous tumor model. Ten million cells of the Temodar®-sensitive (SW1088) or Temodar®-resistant (CCF-STTG1) malignant glioma cell lines were injected into the flank of one-month-old, female athymic nude mice. When the tumor reached 32 mm^3 in size (week I on graph), CC-I (25 mg/kg) was injected intraperitoneally once a week for 7 weeks.

[4] = system: ST88; assay: Cytotoxicity, ST88 neurofibroma cells; assay type: cell-based, human
Protocol: (§1) Cells of established neurofibroma cell lines were plated at a density of 2000-4000 cells per well in 96 well plates under standard cell culture conditions (54) and then exposed to CC-I for 2 days.

[5] = system: U87-MG; assay: cells
Protocol: (§2) Human neuroblastoma cell lines were cultured in Dulbecco's Modified Eagle Medium (DMEM)/F12 media. Human glioma cells were ordered from American Type Culture Collection (ATCC, Manassas, Va.), and maintained in DMEM with 4×10^−3M L-glutamine, 100 U/ml penicillin, 100 μg/ml streptomycin, and 10% fetal bovine serum (FBS). All experiments were performed at 37° C. in 5% CO2 atmosphere under cell culture conditions. Prior to γ-radiation or exposure to chemotherapeutic agents, the glioma cells were plated at a density of 156 to 8,000 cells per well in 96 well plates to account for differences in growth rates, and to obtain similar cell densities for the experimental manipulations, and cultured overnight. Then cells received different dosages of γ-radiation from a ^60Co source GammaCell 220 (Nordion International Inc, Ontario, Canada) or chemotherapeutic agents for another 2-6 days. Cell cytotoxicity assay was determined by MTS [3-(4,5-dimethylthiazol-2-yl)-5-(3-carboxymethoxyphenyl)-2-(4-sulfophenyl)-2H-tetrazolium, inner salt] Cell Proliferation Assay (Promega, Madison, Wis.) or sulforhodamine B (SRB) assay at the end of the exposure period (47, 48).
(§3) Chemotype moiety compounds of CC-I were also tested on the Temodar-resistant CCF-STTG1 and Temodar®-sensitive U87-MG cell lines. The glioma cell culture and treatment is as described above.
(§4) The human glioma CCF-STTG1 cell lines were plated at a density of 5,000 cells per well in 96 well plates under standard DMEM cell culture conditions and then exposed to different concentrations of CC-I, merbarone, or ICRF-193 for 5 days. Merbarone and ICRF-193 are both topoisomerase II inhibitors (55, 56).

[6] = molecular target: topoisomerase IIα (Homo sapiens, UniProt P11388); assay: Supercoiled pHOT1 DNA relaxation assay; assay type: biochemical
topoisomerase IIα, sequence (P11388 whole entry): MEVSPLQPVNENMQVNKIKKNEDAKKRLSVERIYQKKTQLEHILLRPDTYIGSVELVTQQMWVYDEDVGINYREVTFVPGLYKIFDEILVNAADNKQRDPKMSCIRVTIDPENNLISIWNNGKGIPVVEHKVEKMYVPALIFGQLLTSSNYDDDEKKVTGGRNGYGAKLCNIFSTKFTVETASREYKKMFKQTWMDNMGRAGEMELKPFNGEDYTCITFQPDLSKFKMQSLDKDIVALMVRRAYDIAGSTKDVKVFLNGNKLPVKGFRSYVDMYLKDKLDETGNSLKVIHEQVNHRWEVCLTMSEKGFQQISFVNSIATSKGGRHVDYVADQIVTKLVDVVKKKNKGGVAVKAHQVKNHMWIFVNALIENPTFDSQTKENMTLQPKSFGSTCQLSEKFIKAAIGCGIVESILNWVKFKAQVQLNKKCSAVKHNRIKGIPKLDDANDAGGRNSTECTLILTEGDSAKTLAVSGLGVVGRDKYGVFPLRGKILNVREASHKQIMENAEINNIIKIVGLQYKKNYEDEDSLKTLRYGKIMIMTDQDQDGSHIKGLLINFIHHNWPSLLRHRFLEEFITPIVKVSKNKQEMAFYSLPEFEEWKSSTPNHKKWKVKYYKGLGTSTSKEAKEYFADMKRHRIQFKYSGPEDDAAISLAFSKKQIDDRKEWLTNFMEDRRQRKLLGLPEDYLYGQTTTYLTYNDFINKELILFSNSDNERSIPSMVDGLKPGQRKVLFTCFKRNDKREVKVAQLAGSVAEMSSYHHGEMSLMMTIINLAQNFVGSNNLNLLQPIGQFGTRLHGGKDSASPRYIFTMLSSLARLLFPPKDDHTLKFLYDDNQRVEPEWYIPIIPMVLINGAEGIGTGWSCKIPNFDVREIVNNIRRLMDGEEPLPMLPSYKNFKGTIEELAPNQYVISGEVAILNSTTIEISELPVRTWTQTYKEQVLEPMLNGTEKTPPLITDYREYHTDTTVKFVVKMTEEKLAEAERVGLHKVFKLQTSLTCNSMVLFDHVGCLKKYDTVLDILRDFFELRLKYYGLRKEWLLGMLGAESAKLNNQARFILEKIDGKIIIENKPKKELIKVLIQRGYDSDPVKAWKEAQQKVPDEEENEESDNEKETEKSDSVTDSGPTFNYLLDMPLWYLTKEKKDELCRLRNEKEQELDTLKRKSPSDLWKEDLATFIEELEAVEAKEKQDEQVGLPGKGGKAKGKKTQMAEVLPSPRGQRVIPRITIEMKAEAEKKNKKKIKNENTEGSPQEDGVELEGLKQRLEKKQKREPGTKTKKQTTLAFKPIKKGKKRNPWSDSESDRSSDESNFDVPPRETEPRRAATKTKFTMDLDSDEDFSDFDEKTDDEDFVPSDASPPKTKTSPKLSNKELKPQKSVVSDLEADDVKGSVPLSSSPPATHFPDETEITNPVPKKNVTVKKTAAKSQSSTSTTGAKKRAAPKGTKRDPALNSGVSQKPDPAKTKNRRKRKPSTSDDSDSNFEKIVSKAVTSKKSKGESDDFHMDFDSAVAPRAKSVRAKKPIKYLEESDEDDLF

[7] = system: BREC; assay: Cytotoxicity, bovine retinal endothelial cells; assay type: cell-based
Protocol: Bovine retinal endothelial cells (BRECs) were isolated and processed according to a previously published procedure (49, 50). In brief, BREC was grown in MCDB-131 media (Sigma, St) supplemented with 10% FBS, 10 ng/mL EGF, 0.2 mg/mL ENDO GRO (VEC Technologies, Inc.), 0.09 mg/ml heparin, and antibiotic/antimycotic (Invitrogen).

[8] = system: U251; assay: Cytotoxicity (MTS or SRB assay), U251; assay type: cell-based; details: human astrocytoma or glioblastoma cell line
Protocol: as §5

[9] = system: CCF-STTG1; assay: cells
Protocol: as §2
Temodar®-resistant cell lines were used to screen for compounds having the ability to decelerate the growth of, or kill, Temodar®-resistant cells. The efficacy of over 15,000 different compounds in the Drug Discovery Core at Pennsylvania State Hershey Medical Center was tested on Temodar®-resistant human neuroblastoma SH-SY5Y and human glioma CCF-STTG1 cell lines with a colorimetric cytotoxicity assay, the sulforhodamine B (SRB) assay (53).
as §3, §4

[10] = system: C282Y HFE variant expressing neuroblastoma SH-SY5Y cells; assay: SCID mouse subcutaneous neuroblastoma tumor model; details: 25 mg/kg i.p. once a week for 7 weeks
Protocol: To determine the effect of CC-I on neuroblastoma, an in vivo subcutaneous tumor model in SCID mice was examined. One month old, female SCID mice were injected subcutaneously in the flank region with a Temodar®- and radiation-resistant C282Y HFE variant expressing neuroblastoma SH-SY5Y cells. After the tumor attained a volume of 32 mm^3, CC-I (25 mg/kg) was injected intraperitoneally once a week for 7 weeks.

[11] = system: NF215; assay: Cytotoxicity, NF215 neurofibroma cells; assay type: cell-based, human
Protocol: as §1

[12] = system: C282Y/SH-SY5Y; assay: cells; assay type: cell-based; details: C282Y HFE transfected human neuroblastoma SH-SY5Y
Protocol: as §5

[13] = system: CCF-STTG1 cells; assay: FITC-Annexin V/propidium iodide apoptosis assay; assay type: cell-based, human
Protocol: An FITC-labeled Annexin V/propidium iodide apoptosis assay kit (Molecular Probes) was used to determine whether CC-I induces apoptosis in an astrocytoma cell line. […] The percentage of apoptotic cells by the CC-I treatment in CCF-STTG1 cells is from 10.9±0.16% at 5 pig/ml ([…]) to 48.7±0.33% at 10 μg/ml (36.2 μM). By comparison, the positive control, actinomycin D, induced apoptosis in 47.8±0.04% of the cells at 0.05 μg/ml (39.8 nM).

[14] = system: SW1088; assay: Cytotoxicity (MTS or SRB assay), SW1088; assay type: cell-based, human
Protocol: Human glioma cells were ordered from American Type Culture Collection (ATCC, Manassas, Va.), and maintained in DMEM with 4×10^−3M L-glutamine, 100 U/ml penicillin, 100 μg/ml streptomycin, and 10% fetal bovine serum (FBS). All experiments were performed at 37° C. in 5% CO2 atmosphere under cell culture conditions. […] Then cells received different dosages of γ-radiation from a ^60Co source GammaCell 220 (Nordion International Inc, Ontario, Canada) or chemotherapeutic agents for another 2-6 days. Cell cytotoxicity assay was determined by MTS [3-(4,5-dimethylthiazol-2-yl)-5-(3-carboxymethoxyphenyl)-2-(4-sulfophenyl)-2H-tetrazolium, inner salt] Cell Proliferation Assay (Promega, Madison, Wis.) or sulforhodamine B (SRB) assay at the end of the exposure period (47, 48).

[15] = system: SVGp12; assay: Cytotoxicity, SVGp12; assay type: cell-based; details: SV40 transformed human astrocyte cell line
Protocol: as §5

In the case of `CCN1C(=O)C(=C/C=C/c2ccco2)C(=O)NC1=S` [CC-I], the IC50 [1] is reported as 3.3 µM, the IC50 [2] is reported as 3.5 µM and the “body weight of the mice” value [3] is reported as “not affected”. For the same compound, the “liver or kidney toxicity” value [3] was “No liver or kidney toxicity”, the “growth of subcutaneous tumors” value ([3]; CCF-STTG1 tumors, nude mice) was “completely inhibited” and the LD50 ([4]; ST88 neurofibroma cells, 2 days exposure) was 2.1 µg/mL. For the same compound, the IC50 ([4]; human neurofibroma cell line) was 7.5 µM, the “cytotoxicity compared with merbarone or ICRF-193” value ([5]; U87-MG, 5 days) was “more cytotoxic” and the IC50 ([5]; read-out: IC50 (μM) U87-MG, human astrocytoma or glioblastoma cell line) was 3.9 µM. The “concentration completely inhibiting topoisomerase IIα catalyzed pHOT1 relaxation” value [6] was “greater than 3 μg/ml”, the “most effective concentration on topoisomerase IIα activity” value [6] was 3 µg/mL and the IC50 ([7]; bovine retinal endothelial cell) was 46.9 µM. For the same compound, the “toxicity to bovine retinal endothelial cells (BREC)” value ([7]; model for the blood-brain-barrier) was “not toxic”, the IC50 [8] was 3.8 µM and the “cytotoxicity compared with merbarone or ICRF-193” value ([9]; CCF-STTG1, 5 days) was “more cytotoxic”. For the same compound, the IC50 ([9]; read-out: IC50 (μM) CCF-STTG1, human astrocytoma or glioblastoma cell line, Temodar-resistant) was 4.3 µM, the body weight [10] was “unaffected” and the “liver or kidney toxicity” value [10] was “No liver or kidney toxicity”. The tumor growth ([10]; SCID mice) was “completely inhibited tumor growth”, the LD50 ([11]; NF215 neurofibroma cells, 2 days exposure) was 1.4 µg/mL and the IC50 ([11]; human neurofibroma cell line) was 5.1 µM. The IC50 [12] was 1.8 µM, the “percentage of apoptotic cells” value ([13]; CCF-STTG1, at 10 μg/ml (36.2 μM)) was 48.7±0.33% and the “percentage of apoptotic cells” value ([13]; CCF-STTG1, at 5 pig/ml (18.1 µM)) was 10.9±0.16%. The LD50 ([14]; SW-1088 astrocytoma cells) was “≈ 0.5 μg/ml and ~1.7 μM”, the IC50 ([14]; human astrocytoma or glioblastoma cell line, read-out: IC50 (μM) SW1088) was 1.7 µM and the IC50 [15] was 4.2 µM.
